From patent US9580413B2, “Substituted pyrrolidines as ROS tyrosine kinase inhibitors” (NIPPON SHINYAKU CO., LTD., priority 2012, dated 2017)
Structures can show the parent of a compound that is named as a salt.

Columns and labels:
ROS tyrosine kinase = molecular target: T1, ROS tyrosine kinase (Homo sapiens, UniProt P08922); experiment: ROS tyrosine kinase inhibitory activity test (ELISA); format: biochemical, humans; details: 25 μM ATP substrate solution, 30° C., one hour
T1 construct: purchased Carna Biosciences, Inc
Experimental: (§1) 1. Preparation of Test Substance:
(§2) A test substance was dissolved in dimethyl sulfoxide (DMSO) to 10 mM and further diluted with DMSO to concentrations of 100-fold of the concentrations to be measured (100, 10, 1, 0.1, and 0.01 μM). Furthermore, the resultant was diluted with an assay buffer to 20-fold, thereby preparing a solution as a test substance solution. A solution prepared by diluting DMSO with an assay buffer to 20-fold was used as a negative control. A buffer containing 15 mM Tris-Cl (pH 7.5), 0.01 (v/v) % Tween-20, and 1 mM dithiothreitol was used as the assay buffer.
(§3) 2. Measurement of ROS Tyrosine Kinase Activity and JAK2 Tyrosine Kinase Activity:
(§4) The activity was measured by adopting the ELISA method. […] Finally, an ROS kinase or a JAK2 kinase (derived from humans, Carna Biosciences, Inc.) (diluted with the assay buffer to 0.25 nM) was added to the plate at 20 μL per well, and the resulting mixture was stirred. A reaction was performed at 30° C. for one hour. After the plate was washed 4 times with a washing buffer (50 mM Tris-Cl (pH 7.5), 150 mM NaCl, and 0.02 (v/v) % Tween-20), a blocking buffer (0.1% bovine serum albumin, 50 mM Tris-Cl (pH 7.5), 150 mM NaCl, and 0.02 (v/v) % Tween-20) was added to the plate at 150 μL per well, and incubated at 30° C. for 30 minutes. The blocking buffer was then removed, and a horse radish peroxidase-labeled anti-phosphorylated tyrosine antibody (BD Biosciences, Inc.) (diluted with the blocking buffer to 10,000-fold) was added to the plate at 100 μL per well, and the plate was incubated at 30° C. for 30 minutes. After the plate was washed 4 times with the washing buffer, a 3,3′,5,5′-tetramethylbenzidine solution (Sigma-Aldrich Co., Ltd.) was added to the plate at 100 μL per well to develop the color for 10 minutes. The reaction was stopped by adding 0.1 M sulfuric acid at 100 μL per well. An absorbance at 450 nm was measured with a microplate reader (Model 3550, manufactured by BIO-RAD, Benchmark, manufactured by BIO-RAD, or iMARK, manufactured by BIO-RAD).
(§5) 3. Analysis of Measurement Results:
(§6) A non-linear regression analysis was performed for the measured absorbance with an SAS system (SAS Institute Inc.), and a concentration of each of the test substances of inhibiting the ROS tyrosine kinase activity or JAK2 tyrosine kinase activity at 50% (IC50) was calculated. The inhibitory activity (IC50, nM) of each of the test substances against the ROS tyrosine kinase or JAK2 tyrosine kinase is shown in Tables 6 to 8.

JAK2 tyrosine kinase = molecular target: T2, JAK2 tyrosine kinase (Homo sapiens, UniProt O60674); experiment: JAK2 tyrosine kinase inhibitory activity test (ELISA); format: biochemical, humans; details: 25 μM ATP substrate solution, 30° C., one hour
T2 construct: purchased Carna Biosciences, Inc
Experimental: as §1, §2, §3, §4, §5, §6

T1 sequence (P08922 28-2347): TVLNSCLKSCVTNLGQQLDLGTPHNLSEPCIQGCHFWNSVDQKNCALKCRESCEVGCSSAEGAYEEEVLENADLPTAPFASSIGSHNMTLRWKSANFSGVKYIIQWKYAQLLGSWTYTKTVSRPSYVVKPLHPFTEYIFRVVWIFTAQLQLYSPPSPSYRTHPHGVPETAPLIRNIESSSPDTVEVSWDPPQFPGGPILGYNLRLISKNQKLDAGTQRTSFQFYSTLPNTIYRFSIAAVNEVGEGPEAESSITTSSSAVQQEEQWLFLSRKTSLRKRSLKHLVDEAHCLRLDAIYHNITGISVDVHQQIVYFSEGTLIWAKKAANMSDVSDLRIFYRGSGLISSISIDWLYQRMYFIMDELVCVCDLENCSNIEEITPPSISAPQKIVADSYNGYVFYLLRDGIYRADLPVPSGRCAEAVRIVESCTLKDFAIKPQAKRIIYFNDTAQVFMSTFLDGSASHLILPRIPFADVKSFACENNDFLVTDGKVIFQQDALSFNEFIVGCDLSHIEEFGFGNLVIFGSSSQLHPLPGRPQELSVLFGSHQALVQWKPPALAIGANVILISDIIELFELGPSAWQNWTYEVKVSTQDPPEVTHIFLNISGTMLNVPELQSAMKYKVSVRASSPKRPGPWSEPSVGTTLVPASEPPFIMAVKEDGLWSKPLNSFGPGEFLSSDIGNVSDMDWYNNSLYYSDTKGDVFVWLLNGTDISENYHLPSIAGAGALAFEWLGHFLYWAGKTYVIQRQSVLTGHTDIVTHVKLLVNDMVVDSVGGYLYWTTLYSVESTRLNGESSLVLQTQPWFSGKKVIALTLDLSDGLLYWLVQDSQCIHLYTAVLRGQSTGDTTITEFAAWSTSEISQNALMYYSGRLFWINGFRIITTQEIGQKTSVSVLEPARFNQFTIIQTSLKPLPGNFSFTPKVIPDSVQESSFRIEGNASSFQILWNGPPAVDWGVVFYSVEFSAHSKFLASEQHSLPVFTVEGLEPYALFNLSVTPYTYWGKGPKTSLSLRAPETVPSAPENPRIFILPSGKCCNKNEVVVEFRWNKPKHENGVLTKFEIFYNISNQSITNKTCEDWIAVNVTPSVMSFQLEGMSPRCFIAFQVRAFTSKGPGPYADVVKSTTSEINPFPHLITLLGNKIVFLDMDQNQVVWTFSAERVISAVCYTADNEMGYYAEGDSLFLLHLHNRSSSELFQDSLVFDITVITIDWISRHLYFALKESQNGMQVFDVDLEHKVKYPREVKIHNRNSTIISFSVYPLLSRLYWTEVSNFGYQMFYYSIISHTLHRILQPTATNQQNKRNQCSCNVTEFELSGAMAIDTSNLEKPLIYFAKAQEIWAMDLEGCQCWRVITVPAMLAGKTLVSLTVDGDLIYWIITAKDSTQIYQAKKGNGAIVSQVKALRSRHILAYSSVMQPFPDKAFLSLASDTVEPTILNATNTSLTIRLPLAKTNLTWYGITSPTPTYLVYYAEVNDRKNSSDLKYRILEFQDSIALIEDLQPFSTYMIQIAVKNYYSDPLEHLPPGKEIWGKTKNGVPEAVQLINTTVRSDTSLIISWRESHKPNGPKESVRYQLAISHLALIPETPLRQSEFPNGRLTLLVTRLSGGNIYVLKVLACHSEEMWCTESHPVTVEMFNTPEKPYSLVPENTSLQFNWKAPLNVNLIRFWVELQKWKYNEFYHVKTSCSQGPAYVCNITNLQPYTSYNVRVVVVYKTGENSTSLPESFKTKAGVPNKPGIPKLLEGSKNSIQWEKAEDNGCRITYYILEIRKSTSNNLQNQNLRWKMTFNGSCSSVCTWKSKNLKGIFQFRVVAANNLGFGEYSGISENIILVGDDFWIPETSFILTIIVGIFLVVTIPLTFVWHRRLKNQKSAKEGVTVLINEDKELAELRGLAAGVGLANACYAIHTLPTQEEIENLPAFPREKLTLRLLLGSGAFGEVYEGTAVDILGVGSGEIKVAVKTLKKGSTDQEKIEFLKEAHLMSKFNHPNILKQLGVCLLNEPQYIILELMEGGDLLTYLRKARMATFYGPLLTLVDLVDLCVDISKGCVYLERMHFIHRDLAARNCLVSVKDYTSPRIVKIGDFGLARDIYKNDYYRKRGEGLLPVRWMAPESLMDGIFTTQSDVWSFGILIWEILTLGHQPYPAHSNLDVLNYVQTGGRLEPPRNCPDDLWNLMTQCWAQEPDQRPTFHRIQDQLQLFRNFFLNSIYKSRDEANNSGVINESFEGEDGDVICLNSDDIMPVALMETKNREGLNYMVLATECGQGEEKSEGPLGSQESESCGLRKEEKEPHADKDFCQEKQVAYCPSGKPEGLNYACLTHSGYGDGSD
T2 sequence (O60674 whole entry): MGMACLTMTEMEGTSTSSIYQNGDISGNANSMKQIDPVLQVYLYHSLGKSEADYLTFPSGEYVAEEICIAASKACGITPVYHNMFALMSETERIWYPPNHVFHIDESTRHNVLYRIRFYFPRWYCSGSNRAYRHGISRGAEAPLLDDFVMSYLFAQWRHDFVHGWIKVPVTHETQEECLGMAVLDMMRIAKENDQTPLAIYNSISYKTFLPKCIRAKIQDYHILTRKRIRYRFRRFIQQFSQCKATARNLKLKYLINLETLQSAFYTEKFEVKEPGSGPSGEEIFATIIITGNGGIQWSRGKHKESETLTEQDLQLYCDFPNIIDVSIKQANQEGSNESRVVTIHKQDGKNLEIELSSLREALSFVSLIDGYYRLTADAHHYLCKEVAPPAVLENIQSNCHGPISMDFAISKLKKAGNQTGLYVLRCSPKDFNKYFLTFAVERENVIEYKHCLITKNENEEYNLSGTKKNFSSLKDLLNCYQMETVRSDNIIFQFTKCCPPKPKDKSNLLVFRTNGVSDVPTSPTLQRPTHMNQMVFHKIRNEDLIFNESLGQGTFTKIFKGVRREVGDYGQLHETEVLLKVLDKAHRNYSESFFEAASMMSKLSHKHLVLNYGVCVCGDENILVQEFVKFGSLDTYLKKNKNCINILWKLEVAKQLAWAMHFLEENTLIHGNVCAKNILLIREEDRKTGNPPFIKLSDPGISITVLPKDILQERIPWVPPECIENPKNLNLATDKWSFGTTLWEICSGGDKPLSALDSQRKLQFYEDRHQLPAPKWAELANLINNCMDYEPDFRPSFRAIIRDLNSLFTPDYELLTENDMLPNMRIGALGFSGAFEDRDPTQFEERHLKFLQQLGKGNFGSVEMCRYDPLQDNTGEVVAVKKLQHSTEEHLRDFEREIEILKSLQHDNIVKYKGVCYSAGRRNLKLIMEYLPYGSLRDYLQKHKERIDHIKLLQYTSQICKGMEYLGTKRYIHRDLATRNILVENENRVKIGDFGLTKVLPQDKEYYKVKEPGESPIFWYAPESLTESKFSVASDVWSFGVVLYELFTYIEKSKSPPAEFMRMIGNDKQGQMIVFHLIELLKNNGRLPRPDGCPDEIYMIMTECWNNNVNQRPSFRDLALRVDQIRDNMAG

SMILES | IC50 (ROS tyrosine kinase) [µM] | IC50 (JAK2 tyrosine kinase) [µM]
Cc1ccc(C2CCCN2c2ncc(C)c(Nc3ncc(C#N)s3)n2)cc1 (stereo not drawn) [Example 2, 2-({5-Methyl-2-[2-(4-methylphenyl)pyrrolidin-1-yl]pyrimidin-4-yl}amino)-1,3-thiazole-5-carbonitrile] | 0.0032 | 0.27
COc1c(Nc2ncc(C#N)s2)nc(N2CCCC2c2ccc(C)cc2)nc1-c1cncnc1 (stereo not drawn) [Example 3, 2-({5-Methoxy-2-[2-(4-methylphenyl)pyrrolidin-1-yl]-4,5′-bipyrimidin-6-yl}amino)-1,3-thiazole-5-carbonitrile] | 0.0086 | > 1
COc1c(Nc2ncc(C#N)s2)nc(N2CCCC2c2ccc(C)cc2)nc1-c1cccnc1 (stereo not drawn) [Example 5, 2-({5-Methoxy-2-[2-(4-methylphenyl)pyrrolidin-1-yl]-6-(pyridin-3-yl)pyrimidin-4-yl}amino)-1,3-thiazole-5-carbonitrile] | 0.0081 | > 1
Cc1ccc(C2CCCN2c2nc(Nc3ncc(C#N)s3)c(C)c(-c3cnn(C)c3)n2)cc1 (stereo not drawn) [Example 8, 2-({5-Methyl-2-[2-(4-methylphenyl)pyrrolidin-1-yl]-6-(1-methyl-1H-pyrazol-4-yl)pyrimidin-4-yl}amino)-1,3-thiazole-5-carbonitrile] | 0.0039 | > 1
COc1c(Nc2ncc(C#N)s2)nc(N2CCC[C@H]2c2ccc(C)cc2)nc1-c1cnn(C)c1 [Example 10, 2-({5-Methoxy-2-[(2S)-2-(4-methylphenyl)pyrrolidin-1-yl]-6-(l-methyl-1H-pyrazol-4-yl)pyrimidin-4-yl}amino)-1,3-thiazole-5-carbonitrile] | 0.0011 | 0.26
COc1cc(C)ccc1C1CCCN1c1ncc(OC)c(Nc2ncc(C#N)s2)n1 (stereo not drawn) [Example 14, 2-({5-Methoxy-2-[2-(2-methoxy-4-methylphenyl)pyrrolidin-1-yl]pyrimidin-4-yl}amino)-1,3-thiazole-5-carbonitrile] | 0.0025 | 0.35
Cc1ccc(C2CCCN2c2nc(Nc3ncc(C#N)s3)c(C)c(-c3ccc(O)nc3)n2)cc1 (stereo not drawn) [Example 16, 2-({6-(6-Hydroxypyridin-3-yl)-5-methyl-2-[2-(4-methylphenyl)pyrrolidin-1-yl]pyrimidin-4-yl}amino)-1,3-thiazole-5-carbonitrile] | 0.0015 | 0.036
Cc1ccc(C2CCCN2c2nc(C)c(Br)c(Nc3ncc(C#N)s3)n2)cc1 (stereo not drawn) [Example 17, 2-({5-Bromo-6-methyl-2-[2-(4-methylphenyl)pyrrolidin-1-yl]pyrimidin-4-yl}amino)-1,3-thiazole-5-carbonitrile] | 0.039 | > 1
COc1c(Nc2ncc(C#N)s2)nc(N2CCCC2c2ccc(C)cc2)nc1C1CC1 (stereo not drawn) [Example 18, 2-({6-Cyclopropyl-5-methoxy-2-[2-(4-methylphenyl)pyrrolidin-1-yl]pyrimidin-4-yl}amino)-1,3-thiazole-5-carbonitrile] | 0.12 | > 1
Cc1ccc([C@@H]2CCCN2c2cnc(C)c(Nc3ncc(C#N)s3)n2)cc1 [Example 20, 2-({3-Methyl-6-[(2S)-2-(4-methylphenyl)pyrrolidin-1-yl]pyrazin-2-yl}amino)-1,3-thiazole-5-carbonitrile hydrochloride] | 0.0011 | 0.25
N#Cc1cnc(Nc2nc(N3CCCC3c3ccc(F)cc3)cnc2-c2cnco2)s1 (stereo not drawn) [Example 21, 2-({6-[2-(4-Fluorophenyl)pyrrolidin-1-yl]-3-(1,3-oxazol-5-yl)pyrazin-2-yl}amino)-1,3-thiazole-5-carbonitrile] | 0.013 | > 1
N#Cc1cnc(Nc2nc(N3CCCC3c3ccc(F)cc3)cnc2-c2cncnc2)s1 (stereo not drawn) [Example 22, 2-({6-[2-(4-Fluorophenyl)pyrrolidin-1-yl]-3-(pyrimidin-5-yl)pyrazin-2-yl}amino)-1,3-thiazole-5-carbonitrile] | 0.047 | > 1
COc1cc(C)ccc1C1CCCN1c1cnc(C2CC2)c(Nc2ncc(C#N)s2)n1 (stereo not drawn) [Example 23, 2-({3-Cyclopropyl-6-[2-(2-methoxy-4-methylphenyl)pyrrolidin-1-yl]pyrazin-2-yl}amino)-1,3-thiazole-5-carbonitrile] | 0.0088 | > 1
COc1ccccc1C1CCCN1c1cnc(C2CC2)c(Nc2ncc(C#N)s2)n1 (stereo not drawn) [Example 24, 2-({3-Cyclopropyl-6-[2-(2-methoxyphenyl)pyrrolidin-1-yl]pyrazin-2-yl}amino)-1,3-thiazole-5-carbonitrile] | 0.0066 | 0.21
N#Cc1cnc(Nc2nc(N3CCCC3c3ccc(F)cc3)cnc2-c2ccoc2)s1 (stereo not drawn) [Example 25, 2-({6-[2-(4-Fluorophenyl)pyrrolidin-1-yl]-3-(furan-3-yl)pyrazin-2-yl}amino)-1,3-thiazole-5-carbonitrile] | 0.026 | > 1
Cn1cc(-c2ncc(N3CCCC3c3ccc(F)cc3)nc2Nc2ncc(C#N)s2)cn1 (stereo not drawn) [Example 28, 2-({6-[2-(4-Fluorophenyl)pyrrolidin-1-yl]-3-(1-methyl-1H-pyrazol-4-yl)pyrazin-2-yl}amino)-1,3-thiazole-5-carbonitrile] | 0.051 | > 1
COc1cc(C)ccc1C1CCCN1c1cncc(Nc2ncc(C#N)s2)n1 (stereo not drawn) [Example 30, 2-({6-[2-(2-Methoxy-4-methylphenyl)pyrrolidin-1-yl]pyrazin-2-yl}amino)-1,3-thiazole-5-carbonitrile] | 0.0005 | 0.069
Cc1cnc(Nc2nc(N3CCCC3c3ccc(Cl)cc3)cnc2C2CC2)s1 (stereo not drawn) [Example 31, 6-[2-(4-Chlorophenyl)pyrrolidin-1-yl]-3-cyclopropyl-N-(5-methyl-1,3-thiazol-2-yl)pyrazine-2-amine] | 0.0053 | 0.39
COc1cc(C2CCCN2c2cncc(Nc3ncc(C#N)s3)n2)ccc1C (stereo not drawn) [Example 33, 2-({6-[2-(3-Methoxy-4-methylphenyl)pyrrolidin-1-yl]pyrazin-2-yl}amino)-1,3-thiazole-5-carbonitrile] | 0.0022 | 0.19
Cc1ccc([C@@H]2CCCN2c2cnc(C3CC3)c(Nc3ncc(C#N)s3)n2)cc1 [Example 35, 2-({3-Cyclopropyl-6-[(2S)-2-(4-methylphenyl)pyrrolidin-1-yl]pyrazin-2-yl}amino)-1,3-thiazole-5-carbonitrile] | 0.0029 | > 1
N#Cc1cnc(Nc2nc(N3CCC[C@H]3c3ccc(Cl)cc3)cnc2C2CC2)s1 [Example 36, 2-({6-[(2S)-2-(4-Chlorophenyl)pyrrolidin-1-yl]-3-cyclopropylpyrazin-2-yl}amino)-1,3-thiazole-5-carbonitrile] | 0.001 | 0.24
COc1ccc(C2CCCN2c2cncc(Nc3ncc(C#N)s3)n2)cc1 (stereo not drawn) [Example 37, 2-({6-[2-(4-Methoxyphenyl)pyrrolidin-1-yl]pyrazin-2-yl}amino)-1,3-thiazole-5-carbonitrile] | 0.013 | 0.56
COc1cccc(C2CCCN2c2cncc(Nc3ncc(C#N)s3)n2)c1 (stereo not drawn) [Example 38, 2-({6-[2-(3-Methoxyphenyl)pyrrolidine-1-yl]pyrazin-2-yl}amino)-1,3-thiazole-5-carbonitrile] | 0.018 | 0.62
N#Cc1cnc(Nc2nc(N3CCCC3c3ccc(F)cc3)cnc2C2CC2)s1 (stereo not drawn) [Example 40, 2-({3-Cyclopropyl-6-[2-(4-fluorophenyl)pyrrolidin-1-yl]pyrazin-2-yl}amino)-1,3-thiazole-5-carbonitrile] | 0.0021 | 0.23
Cc1ncc(N2CCCC2c2ccc(F)cc2)nc1Nc1ncc(C#N)s1 (stereo not drawn) [Example 41, 2-({6-[2-(4-Fluorophenyl)pyrrolidin-1-yl]-3-methylpyrazin-2-yl}amino)-1,3-thiazole-5-carbonitrile] | 0.00071 | 0.021
Cc1ncc(N2CCCC2c2ccc(Cl)cc2)nc1Nc1ncc(C#N)s1 (stereo not drawn) [Example 42, 2-({6-[2-(4-Chlorophenyl)pyrrolidin-1-yl]-3-methylpyrazin-2-yl}amino)-1,3-thiazole-5-carbonitrile] | 0.0016 | 0.1
Cc1nc(C2CC2)c(Nc2ncc(C#N)s2)nc1N1CCCC1c1ccc(Cl)cc1 (stereo not drawn) [Example 44, 2-({6-[2-(4-Chlorophenyl)pyrrolidin-1-yl]-3-cyclopropyl-5-methylpyrazin-2-yl}amino)-1,3-thiazole-5-carbonitrile] | 0.013 | ≥ 1
